The values that follow come from paper PMC10643403, “Targeting the Schistosoma mansoni nutritional mechanisms to design new antischistosomal compounds” (Scientific Reports, 2023).

As a reminder, the CC50 is the concentration giving 50% cytotoxicity. As usually defined, the EC50 is the concentration needed to bring the measured effect to its halfway point.

Structures are written as SMILES. In brackets after ≈: the same amount, converted by molar mass. Where two headings read alike, the source gives them in different places. Where only a bound is given, the exact number is not on record here.

Series [1] can be described thus: In vitro cytotoxicity assay (MTT) on Vero cells. Type of series: cell-based, African green monkey. To be noted: African green monkey, Vero cells (ATCC CCL-81); Vero cells; MTT assay; 72 h; read-out: Mammalian cells CC50. On the procedure:
(§1) The life cycle of S. mansoni (Belo Horizonte strain) is maintained through routine passage through Biomphalaria glabrata snails and Swiss mice at the Research Center on Neglected Diseases (Guarulhos University, SP, Brazil). Both rodents and snails were kept under environmentally controlled conditions (25 °C; humidity of 50%), with free access to food and water. Vero cells were obtained from the American Type Culture Collection (ATCC CCL-81; Manassas, VA, USA). Cells were routinely cultured in Dulbecco’s Modified Eagle Medium (DMEM) supplemented with 5% heat-inactivated fetal bovine serum and antibiotics (100 U/mL penicillin and 100 μg/mL streptomycin) at 37 °C in a humidified atmosphere containing 5% CO2 [17].
(§2) The cytotoxicity of the compounds on the Vero cells was determined by thiazolyl blue tetrazolium bromide (MTT) assay (Sigma-Aldrich) as previously described[21],[24]. […] After 72 h, MTT solution was added to each well and the absorbance at 595 nm was read on a spectrophotometer (Epoch, BioTek Instruments, Winooski, VT, USA).
In general terms: Formazan colour is commonly taken as a measure of viable cells.

Another series has as its system Vero cells. Description: In vitro cytotoxicity assay (MTT) on Vero cells. The class given is cell-based, African green monkey. To be noted: CC50 on Vero cells divided by EC50 on schistosomes (based on the highest concentration). The method, then:
as §1, §2

A further series has as its system Caenorhabditis elegans. Type of series: in vivo. To be noted: L4 stage, 24 h. On the procedure:
Caenorhabditis elegans wild-type (N2 strain), kindly provided by Dr. Carlos E. Winter (University of São Paulo), was routinely cultured at 22 °C on nematode growth medium (NGM) plates seeded with Escherichia coli (strain OP50) as a food source according to standard protocols.
For the drug assessment, the age-synchronized L1 stage was cultivated on standard NGM plates. When at the L4 stage, approximately 25 nematodes were transferred to each well of a 96-wells NGM plates containing the drug of interest at the desired concentration (10, 25, 50, 100, and 200 μM) along with a positive control (levamisole 10 μM) and a negative control (DMSO 0.5%). Nematodes were kept at 22 °C for 24 h, and their viability was verified microscopically using a Motic AE2000 inverted microscope (Vancouver, Canada) equipped with an ultra-high definition (UHD) camera and with a 48-inch 4K-UHD monitor system (LG Electronics, São Paulo, Brazil)[33].

A further series deals with S. mansoni-infected mice. Description: In vivo antiparasitic study in an animal model of schistosomiasis. The conditions noted are these: 400 mg/kg single oral dose, vs infected untreated control. On the procedure:
In vivo studies in S. mansoni-infected mice were performed according to standard protocols[20],[26]. Rodents (3 weeks old) were infected subcutaneously with 80 S. mansoni cercariae each and animals were randomly divided into experimental groups (five mice per group). Compounds were dissolved in 2% ethanol in water (v/v) and tested at a single oral dose (400 mg/kg) administered 42 days post-infection[27]. For comparison, praziquantel (400 mg/kg) and a corresponding amount of vehicle were administered to groups of five schistosomes-infected animals in the same period[28],[29]. […] The percentage of worm and egg reduction was calculated by means of the following equation: % reduction = [(value of untreated control group − value of treatment group)/value of untreated control group] × 100%[32]. The nonparametric Kruskal–Wallis test was used to compare the medians of the responses between the treatment and control groups using the GraphPad Prism software (version 8.0; CA, USA). Differences were considered statistically significant at P < 0.05[9].

Another series relates to S. mansoni adult worms. The series can be described thus: In vitro antischistosomal assay on adult worms. The class given is cell-based, Schistosoma mansoni. To be noted: for EC50: Schistosoma mansoni, based on mortality, after 72 h, 95% confidence interval in square brackets. On the procedure:
The antischistosomal assay was performed according to the methodology previously described[16],[19],[20]. Briefly, […], were incubated in flat bottom 24-well plates (Corning, New York, NY, USA) in RPMI 1640 culture medium (Vitrocell, Campinas, SP, Brazil) supplemented with 5% inactivated fetal calf serum, antibiotics (100 U/mL penicillin and 100 μg/mL streptomycin), and buffered with HEPES 25 mM (Sigma-Aldrich, St. Louis, MO, USA). Compounds were dissolved in dimethyl sulfoxide (DMSO at a final concentration of 0.5% v/v) and tested at 50 μM using PZQ 2 μM and DMSO 0.5% as positive and negative controls, respectively. Parasites were kept for 72 h (37 °C, 5% CO2, Panasonic, Osaka, Japan) and their viability was assessed using a Motic AE2000 inverted microscope (Vancouver, Canada)[21]. Each experiment was performed in triplicate and repeated at least three times. The negative control (using the highest concentration of DMSO, i.e., 0.5) and positive control (praziquantel 2 µM) were included.
Each concentration was tested in five replicates, and experiments were repeated once.

Series [2] concerns Schistosoma mansoni worms. Set-up: method as in ref 1 (Santiago et al.). The conditions noted are these: after 144 h; target not determined; ref 1 (Santiago et al.); cited from earlier work.

Turning to `Clc1ccc2c(N/N=C/c3cccs3)ccnc2c1` [GPQF-8Q8, 7-Chloro-4-[(2E)-2-(thiophen-2-ylmethylidene)hydrazinyl]quinoline], in series [1], the CC50 at 72 h was above 200 µM. In addition, the “SI (selectivity index)” value with Vero cells is recorded as above 5.6. The “Survival percentage of C. elegans” value in the series with Caenorhabditis elegans (10 μM), in the series on Caenorhabditis elegans (25 μM), with Caenorhabditis elegans (50 μM), with Caenorhabditis elegans (100 μM) and in the series with Caenorhabditis elegans (200 μM) was 100% each time. The “Reduction in worm burden” value in the series on S. mansoni-infected mice (42 days post-infection) is listed as 50.8%. In addition, the “Reduction in eggs found in feces” value in the series on S. mansoni-infected mice (Kato-Katz technique) is 52.8%. Besides, the “Reduction in immature eggs found in the intestines” value in the series with S. mansoni-infected mice (oogram) came out at 45.8%. For the same molecule, the “Activity against 49-day-old S. mansoni worms at 50 µM” value in the series with S. mansoni adult worms (50 µM, adult worms, initial in vitro trial, 72 h) is “Active”. Besides, the 50% effective concentration (EC50) was determined as 28.5 µM in the series on S. mansoni adult worms (female adult worms, read-out: S. mansoni EC50 Female) and 35.8 µM in the series with S. mansoni adult worms (male adult worms, read-out: S. mansoni EC50 Male).
For `COc1ccc(-c2cnc(N/N=C/N3C(=O)c4ccccc4C3=O)s2)cc1` [LpQM-45], in series [2], the “IC50 (worm motility, pairing, oviposition study)” value was 32.09 µg/mL (≈ 84.8 µM).
